Test results from patent publication US20150291565A1, “INDOLE COMPOUNDS AND THEIR USE AS ANTIMICROBIALS” (Memorial Sloan-Kettering Cancer Center, priority 2012, published 2015).
Converted amounts (≈) assume the structure as drawn. Where two headings read alike, the source gives them in different places.

Key:
M. smegmatis (mc2155) = assay: Disk diffusion assay, zone of inhibition, M. smegmatis; type: cell-based; details: disk diffusion zone of inhibition
MRSA = assay: Disk diffusion assay, zone of inhibition, MRSA; type: cell-based, Staphylococcus aureus; details: disk diffusion zone of inhibition
K. pneumoniae ATCC 13883 = assay: Broth dilution MIC, K. pneumoniae ATCC 13883; type: cell-based; details: for MIC: Klebsiella pneumoniae
[1] = tested on: S. aureus ATCC 33591 (MRSA); assay: Broth dilution MIC, S. aureus ATCC 33591; type: cell-based; details: for MIC: Staphylococcus aureus
E. coli ECM 1694 = assay: Broth dilution MIC, E. coli ECM 1694; type: cell-based; details: for MIC: Escherichia coli
[2] = tested on: S. pneumoniae ATCC 6301 (PSSP); assay: Broth dilution MIC, S. pneumoniae ATCC 6301; type: cell-based; details: for MIC: Streptococcus pneumoniae
E. faecium CT-26 = assay: Broth dilution MIC, E. faecium CT-26; type: cell-based; details: for MIC: Enterococcus faecium
[3] = tested on: E. faecalis ATCC 29212 (VRE); assay: Broth dilution MIC, E. faecalis ATCC 29212; type: cell-based
P. aeruginosa ATCC 9027 = assay: Broth dilution MIC, P. aeruginosa ATCC 9027; type: cell-based; details: for MIC: Pseudomonas aeruginosa
E. coli ATCC 25922 = assay: Broth dilution MIC, E. coli ATCC 25922; type: cell-based; details: for MIC: Escherichia coli
[4] = tested on: E. faecium ATCC 700221 (VRE); assay: Broth dilution MIC, E. faecium ATCC 700221; type: cell-based
S. aureus BAA-39 (MDR) = assay: Broth dilution MIC, S. aureus BAA-39; type: cell-based; details: for MIC: Staphylococcus aureus, BAA39
[5] = tested on: S. pneumoniae ATCC 700674 (PRSP); assay: Broth dilution MIC, S. pneumoniae ATCC 700674; type: cell-based; details: for MIC: Streptococcus pneumoniae
[6] = tested on: S. aureus ATCC 29213 (MSSA); assay: Broth dilution MIC, S. aureus ATCC 29213; type: cell-based; details: for MIC: Staphylococcus aureus
K. pneumoniae ATCC 51503 = assay: Broth dilution MIC, K. pneumoniae ATCC 51503; type: cell-based; details: for MIC: Klebsiella pneumoniae
C. albicans ATCC 14053 = assay: Broth dilution MIC, C. albicans ATCC 14053; type: cell-based; details: Candida albicans, ATCC14053; Table 1; range 64 down to 0.12 μg/ml
Experimental: In vitro Anti-bacterial & Anti-fungal Activity Assay: All test compounds were prepared as 6.4 mg/ml stock solutions in DMSO and further diluted according to the NCCLS M7-A6 (Page 5) document with sterile water or appropriate diluent. A working stock of 256 μg/ml was used to do 1:2 serial dilutions in 96-well plates. […] The inoculums were prepared by making a direct sterile water suspension of isolated colonies from 18 to 24 hr agar plates for all organisms (Mueller Hinton, Blood Agar or SDA plates). Each bacterial suspension was adjusted to read between 0.09 and 0.11 absorbance at 620 nm. […] These were further diluted 1/100 in appropriate broth for inoculating the 96-well plates. The C. albicans suspension was adjusted to read between 70 and 75% Transmittance at 530 nm and then diluted 1/500 in RPMI+MOPS broth. All aerobic bacterial and fungal plates were incubated for 18 hrs. at 35° C. […] Plates were read using a Beckman Automated Plate Reader at 650 nm. Readings were confirmed by visual examination of plates. (See Table 1, Table 2, Table 3, and Table 4). […] It is important to note that positive results against C. albicans are often indicative of broad spectrum antifungal activity, while negative results are not necessarily conclusory of a lack of activity against other fungus.

[7] = Table 4, broth dilution MIC according to CLSI standards (NAEJA)

SMILES: Nc1ccc(-c2cc3ccc(C4=NCCN4)cc3[nH]2)cc1 [Compound 398657]
- Zone Size M. smegmatis (M. smegmatis (mc2155)): 9.2 mm
- Zone Size MRSA (MRSA): 8.3 mm

SMILES: C[C@@H](O)[C@H]1C(=O)N2C(C(=O)O)=C(SCCN=CN)C[C@H]12 [IMP, reference compound]
- MIC K. pneumoniae ATCC 13883 (K. pneumoniae ATCC 13883; [7]): 2 µg/mL (≈ 6.68 µM)
- MIC S. aureus ATCC 33591 ([1]; Table 3, starting at 4 μg/ml): >4 µg/mL
- MIC MRSA S. aureus ATCC 33591 [1, 7]: >4 µg/mL
- MIC E. coli ECM 1694 (E. coli ECM 1694; Table 3, starting at 4 μg/ml): 0.5 µg/mL (≈ 1.67 µM)
- MIC E. coli ECM 1694 (E. coli ECM 1694; [7]): 2 µg/mL (≈ 6.68 µM)
- MIC S. pneumoniae ATCC 6301 ([2]; Table 3, starting at 4 μg/ml): ≦0.008 mcg/ml
- MIC PSSP S. pneumoniae ATCC 6301 [2, 7]: 0.015 µg/mL (≈ 0.0501 µM)
- MIC E. faecium CT-26 (E. faecium CT-26; Table 3, starting at 4 μg/ml): >4 µg/mL
- MIC E. faecium CT-26 (E. faecium CT-26; [7]): >4 µg/mL
- MIC E. faecalis ATCC 29212 ([3]; Table 3, starting at 4 μg/ml): 1 µg/mL (≈ 3.34 µM)
- MIC VRE E. faecalis ATCC 29212 [3, 7]: 4 µg/mL (≈ 13.4 µM)
- MIC P. aeruginosa ATCC 9027 (P. aeruginosa ATCC 9027; [7]): 4 µg/mL (≈ 13.4 µM)
- MIC E. coli ATCC 25922 (E. coli ATCC 25922; [7]): 1 µg/mL (≈ 3.34 µM)
- MIC E. faecium ATCC 700221 ([4]; Table 3, starting at 4 μg/ml): >4 µg/mL
- MIC VRE E. faecium ATCC 700221 [4, 7]: >4 µg/mL
- MIC S. aureus BAA-39 (S. aureus BAA-39 (MDR); Table 3, starting at 4 μg/ml): 1 µg/mL (≈ 3.34 µM)
- MIC MDR S. aureus BAA-39 (S. aureus BAA-39 (MDR); [7]): 4 µg/mL (≈ 13.4 µM)
- MIC S. pneumoniae ATCC 700674 ([5]; Table 3, starting at 4 μg/ml): 0.06 µg/mL (≈ 0.2 µM)
- MIC PRSP S. pneumoniae ATCC 700674 [5, 7]: 0.5 µg/mL (≈ 1.67 µM)
- MIC S. aureus ATCC 29213 ([6]; Table 3, starting at 4 μg/ml): 0.016 µg/mL (≈ 0.0534 µM)
- MIC MSSA S. aureus ATCC 29213 [6, 7]: 0.06 µg/mL (≈ 0.2 µM)
- MIC K. pneumoniae ATCC 51503 (K. pneumoniae ATCC 51503; [7]): 2 µg/mL (≈ 6.68 µM)

SMILES: c1ccc(Nc2ccc(-c3cc4ccc(C5=NCCN5)cc4[nH]3)cc2)cc1 [SKI-2]
- MIC (K. pneumoniae ATCC 13883; ATCC13883, Table 1, range 64 down to 0.12 μg/ml, read-out: MIC K. pneumoniae ATCC 13883): 32 µg/mL (≈ 90.8 µM)
- MIC (K. pneumoniae ATCC 13883; ATCC13883, Table 2, broth dilution MIC in ug/ml, read-out: MIC K pneumonia ATCC 13883): 32 µg/mL (≈ 90.8 µM)
- MIC (C. albicans ATCC 14053): 16 µg/mL (≈ 45.4 µM)
- MIC ([1]; Table 1, range 64 down to 0.12 μg/ml, read-out: MIC S. aureus ATCC 33591): 4 µg/mL (≈ 11.3 µM)
- MIC ([1]; Table 2, broth dilution MIC in ug/ml, read-out: MIC S aureus ATCC 33591 MRSA): 4 µg/mL (≈ 11.3 µM)
- MIC (E. coli ECM 1694; ECM1694, Table 1, range 64 down to 0.12 μg/ml, read-out: MIC E. coli ECM 1694): 2 µg/mL (≈ 5.67 µM)
- MIC (E. coli ECM 1694; ECM1694, Table 2, broth dilution MIC in ug/ml, read-out: MIC E. coli ECM 1693): 2 µg/mL (≈ 5.67 µM)
- MIC ([2]; ATCC6301, Table 1, range 64 down to 0.12 μg/ml, read-out: MIC S. pneumoniae ATCC 6301): 2 µg/mL (≈ 5.67 µM)
- MIC ([2]; ATCC6301, Table 2, broth dilution MIC in ug/ml, read-out: MIC S pneumonia ATCC 6301 PSSP): 2 µg/mL (≈ 5.67 µM)
- MIC (E. faecium CT-26; CT26, Table 1, range 64 down to 0.12 μg/ml, read-out: MIC E. faecium CT-26): 2 µg/mL (≈ 5.67 µM)
- MIC (E. faecium CT-26; CT26, Table 2, broth dilution MIC in ug/ml, read-out: MIC E faecium CT-25): 2 µg/mL (≈ 5.67 µM)
- MIC ([3]; Enterococcus faecalis, Table 1, range 64 down to 0.12 μg/ml, read-out: MIC E. faecalis ATCC 29212): 2 µg/mL (≈ 5.67 µM)
- MIC ([3]; Table 2, broth dilution MIC in ug/ml, read-out: MIC E faecalis ATCC 29212 VRE): 2 µg/mL (≈ 5.67 µM)
- Zone Size M. smegmatis (M. smegmatis (mc2155)): 14.3 mm
- MIC (P. aeruginosa ATCC 9027; ATCC 9026 / ATCC 9027, Table 2, broth dilution MIC in ug/ml, read-out: MIC P aeruginosa ATCC 9026): 64 µg/mL (≈ 182 µM)
- MIC (P. aeruginosa ATCC 9027; ATCC9027, Table 1, range 64 down to 0.12 μg/ml, read-out: MIC P. aeruginosa ATCC 9027): 64 µg/mL (≈ 182 µM)
- MIC (E. coli ATCC 25922; ATCC 25921 / ATCC 25922, Table 2, broth dilution MIC in ug/ml, read-out: MIC E. coli ATCC 25921): 16 µg/mL (≈ 45.4 µM)
- MIC (E. coli ATCC 25922; ATCC25922, Table 1, range 64 down to 0.12 μg/ml, read-out: MIC E. coli ATCC 25922): 16 µg/mL (≈ 45.4 µM)
- MIC ([4]; Enterococcus faecium, Table 1, range 64 down to 0.12 μg/ml, read-out: MIC E. faecium ATCC 700221): 2 µg/mL (≈ 5.67 µM)
- MIC ([4]; Table 2, broth dilution MIC in ug/ml, read-out: MIC E faecium ATCC 700221 VRE): 2 µg/mL (≈ 5.67 µM)
- MIC (S. aureus BAA-39 (MDR); Table 1, range 64 down to 0.12 μg/ml, read-out: MIC S. aureus BAA-39): 4 µg/mL (≈ 11.3 µM)
- MIC (S. aureus BAA-39 (MDR); Table 2, broth dilution MIC in ug/ml, read-out: MIC S aureus BAA-39 MDR): 4 µg/mL (≈ 11.3 µM)
- MIC ([5]; Table 1, range 64 down to 0.12 μg/ml, read-out: MIC S. pneumoniae ATCC 700674): 4 µg/mL (≈ 11.3 µM)
- MIC ([5]; Table 2, broth dilution MIC in ug/ml, read-out: MIC S pneumonia ATCC 700674 PRSP): 4 µg/mL (≈ 11.3 µM)
- MIC ([6]; Table 1, range 64 down to 0.12 μg/ml, read-out: MIC S. aureus ATCC 29213): 8 µg/mL (≈ 22.7 µM)
- MIC ([6]; Table 2, broth dilution MIC in ug/ml, read-out: MIC S aureus ATCC 29213 MSSA): 8 µg/mL (≈ 22.7 µM)
- Zone Size MRSA (MRSA): 10 mm
- MIC (K. pneumoniae ATCC 51503; ATCC51503, Table 1, range 64 down to 0.12 μg/ml, read-out: MIC K. pneumoniae ATCC 51503): 64 µg/mL (≈ 182 µM)
- MIC (K. pneumoniae ATCC 51503; ATCC51503, Table 2, broth dilution MIC in ug/ml, read-out: MIC K pneumonia ATCC 51503): 64 µg/mL (≈ 182 µM)
